Common to all, as to assay type: functional, organism-based
Test [1] has as its system Rattus norvegicus. Description: Evaluated for number of rats ovulating in an in vivo anti-ovulatory assay at dose (25 microg); 0/6.
Test [2] deals with Rattus norvegicus. Nature of the test: Evaluated for number of rats ovulating in an in vivo anti-ovulatory assay at dose (10 microg); 10/10.
The test system of test [3] is Rattus norvegicus. Description: Evaluated for number of rats ovulating in an in vivo anti-ovulatory assay at dose (500 microg); 7/8.

Calls of active or inactive are those of the source. The calls are words filed in the database; no cut-off is given here.

Take `CC(=O)N[C@H]1CC(=O)NCC(=O)N[C@@H](C(=O)N[C@@H](CO)C(=O)N[C@@H](Cc2ccc(O)cc2)C(=O)N[C@H](Cc2ccc3ccccc3c2)C(=O)N[C@H](CC(C)C)C(=O)N[C@@H](CCCN=C(N)N)C(=O)N2CCC[C@H]2C(=O)N[C@H](C)C(N)=O)CCCNC(=O)[C@@H](Cc2ccc(Cl)cc2)NC1=O`: in test [1], the result was Active. Further, the result in test [2] was inactive.

For `CC(=O)N[C@H]1CC(=O)N[C@@H](C)C(=O)N[C@@H](C(=O)N[C@@H](CO)C(=O)N[C@@H](Cc2ccc(O)cc2)C(=O)N[C@H](CCCN=C(N)N)C(=O)N[C@H](CC(C)C)C(=O)N[C@@H](CCCN=C(N)N)C(=O)N2CCC[C@H]2C(=O)N[C@H](C)C(N)=O)CCCNC(=O)[C@@H](Cc2ccc(Cl)cc2)NC1=O`, the outcome in test [3] was inactive.

These data come from ChEMBL document CHEMBL1132958, “Design of monocyclic (1-3) and dicyclic (1-3/4-10) gonadotropin releasing hormone (GnRH) antagonists” (J Med Chem, 2000).
